These results are taken from PMC7887271, “Fast acting allosteric phosphofructokinase inhibitors block trypanosome glycolysis and cure acute African trypanosomiasis in mice” (Nature Communications, 2021).

Series [1] relates to CYP3A4, CYP2D6, CYP2C9, CYP2C19, CYP1A2. The series is described as follows: Inhibition of CYP450, five isoform panel. The format is in vitro ADME. Conditions: human, CYP450 isoform inhibition kit (BD Biosciences), 3A4, 2D6, 2C9, 2C19, 1A2, read-out: % inhibition of CYP450 isoforms. The protocol:
(§1) A HepG2 cytotoxicity assay was used to determine a cellular selectivity index. HepG2 cells were seeded into 96-well plates in EMEM medium. Compounds were assessed for their effect upon cellular viability (Supplementary Methods 5.1). Inhibition of CYP450 was determined using kits from BD Biosciences (Supplementary Methods 5.2). Metabolic stability was determined using mouse […] tested at a single concentration of 5 µM. Plasma protein binding was determined using mouse and human plasma at a single concentration of 10 µM (Supplementary Methods 5.4). All PK studies in mice were carried out by Pharmidex (Supplementary Methods 6.1).
(§2) The compounds were investigated for their inhibitory effect on cytochrome P450 (CYP450) activity using five CYP450 isoforms (with fluorescent substrates in brackets): 3A4 (two substrates, BFC and DBF), 2D6 (AMMC), 2C9 (MFC), 2C19 (CEC) and 1A2 (CEC). Kits from BD Biosciences were used along with the method described by the manufacturer. […] Fluorescence was measured using a SpectraMax M5 plate reader.

The target in the next series is T1, TbPFK (Trypanosoma brucei brucei, UniProt O15648).
T1 construct: made in house; host or cells: Escherichia coli C41 (pET28a, codon optimised gene)
T1 sequence (O15648 1-487): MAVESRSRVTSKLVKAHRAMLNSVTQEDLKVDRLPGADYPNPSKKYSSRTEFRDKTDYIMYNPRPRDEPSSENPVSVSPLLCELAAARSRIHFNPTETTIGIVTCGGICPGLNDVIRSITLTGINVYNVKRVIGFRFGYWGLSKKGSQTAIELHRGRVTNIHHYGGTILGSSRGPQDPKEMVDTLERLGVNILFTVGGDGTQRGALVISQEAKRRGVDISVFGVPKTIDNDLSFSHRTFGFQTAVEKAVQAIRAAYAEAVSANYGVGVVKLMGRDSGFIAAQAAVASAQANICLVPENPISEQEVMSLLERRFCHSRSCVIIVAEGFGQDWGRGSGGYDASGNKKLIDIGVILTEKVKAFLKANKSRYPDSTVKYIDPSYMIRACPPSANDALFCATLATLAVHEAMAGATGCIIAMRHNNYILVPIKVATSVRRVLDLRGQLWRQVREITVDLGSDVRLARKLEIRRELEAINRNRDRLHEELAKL
The series is described as follows: PYK/LDH linked enzyme assay to determine inhibitor mode of action. The format is biochemical. As for the experimental part:
TbPFK inhibition was studied using an enzyme assay, in which production of ADP by TbPFK was coupled to the reactions of pyruvate kinase and lactate dehydrogenase: the conversion of pyruvate to lactate and NADH to NAD^+, is monitored by reduction of UV absorbance at 340 nm.
Parasite enzyme kinetic data were measured using N-terminally His6-tagged TbPFK expressed in Escherichia coli C41 cells, using a codon optimised gene inserted in a pET28a vector (Supplementary Methods 1). Recombinant human PFKs were expressed in PFK-deficient Saccharomyces cerevisiae. PFK enzyme inhibition was measured using an ADP-Glo^TM assay (Promega) in a 96-well plate format (Supplementary Methods 2.1), using a Spectramax© M5 Multimode Plate Reader to measure luminescence values which were converted to ADP concentrations. IC50 values were determined using a sigmoidal curve fitting algorithm in Kaleidagraph 4 (Supplementary Fig. 1). Mode of action studies were carried out using a linked enzyme assay coupling the forward reaction of TbPFK to the M1 isoform of human pyruvate kinase followed by lactate dehydrogenase. The change in UV absorbance at 340 nm resulting from the conversion of NADH to NAD^+ was measured at 25 °C in ‘kinetic mode’ on a Spectramax© M5 Multimode plate reader. […] An alternative linked enzyme assay was developed to control for the potential inhibitory activity of ATP on human PFK (Supplementary Methods 2.3).
The mechanism of TbPFK inhibition was studied using a coupled enzyme assay in which production of ADP by TbPFK was coupled to the reaction of human M1 isoform pyruvate kinase (hPYK), which converts ADP and phosphoenolpyruvate (PEP) to ATP and pyruvate. The reaction is further coupled to lactate dehydrogenase (LDH), which converts pyruvate and NADH to lactate and NAD^+, respectively. NADH conversion was monitored by measuring changes in NADH absorbance.
A 2.5x ‘assay mix’ was made containing 4.8 mM PEP, 1.2 mM NADH , 20 U/ml PYK, 33 U/ml LDH, 0 to 3mM ATP in assay buffer (10 mM MgCl2, 100 mM KCl, 50 mM TEA, 10% glycerol, 0.005% Tween-20, pH 7.4). For measuring activity 40 µl of assay mix was plated in a clear, non-binding 96 well plate (Greiner Bio-One cat. no. 655901) with 4-10 µl of the PFK sample (typically a 0.1 mg/ml stock) to be tested and 40 – 46 µl of assay buffer. The reaction was started upon addition of 10 µl of up to 6 mM F6P (0.6 mM final concentration). Absorbance at 340 nm was read at 20 second intervals for 10 minutes at 25 °C in ‘kinetic mode’ on a Spectramax© M5 Multimode plate reader. The gradient of the linear section of raw plots of NADH absorbance over time were used to obtain initial velocities.

Another series has as its target T2, CYP2D6 (Homo sapiens, UniProt P10635).
T2 construct: purchased BD Biosciences
Briefly: Inhibition of CYP2D6. The format is in vitro ADME. The following applies: CYP450 isoform inhibition kit (BD Biosciences), probe AMMC. As for the experimental part:
as §1, §2

Entries after “also recorded” stand apart in the source; their conditions may differ. A value given as a limit tells only on which side of the number the result lay.

In general, inhibition refers to the percentage by which the read-out fell short of the control.

T2 sequence (P10635 whole entry): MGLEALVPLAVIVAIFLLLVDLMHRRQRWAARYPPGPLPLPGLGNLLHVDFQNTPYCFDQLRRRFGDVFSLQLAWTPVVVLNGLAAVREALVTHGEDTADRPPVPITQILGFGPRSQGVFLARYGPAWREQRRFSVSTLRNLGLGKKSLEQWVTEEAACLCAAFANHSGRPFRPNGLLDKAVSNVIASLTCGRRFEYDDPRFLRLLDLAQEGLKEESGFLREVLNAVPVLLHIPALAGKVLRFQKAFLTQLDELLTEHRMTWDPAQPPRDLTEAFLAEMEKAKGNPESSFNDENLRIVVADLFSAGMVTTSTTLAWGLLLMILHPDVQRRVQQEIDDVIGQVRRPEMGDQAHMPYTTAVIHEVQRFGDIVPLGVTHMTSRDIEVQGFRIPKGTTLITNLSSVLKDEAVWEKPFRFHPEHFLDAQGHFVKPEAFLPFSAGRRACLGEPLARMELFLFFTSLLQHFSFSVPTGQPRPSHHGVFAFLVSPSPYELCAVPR

For `CN(C)CCn1ccc2c(ccn2Cc2ccc(F)c(Br)c2)c1=O` [CTCB-508, 1-[(3-Bromo-4-fluorophenyl)methyl]-5-[2-(dimethylamino)ethyl] pyrrolo[3,2-c]pyridin-4-one], the inhibition at 10 µM in series [1] is ≤ 10%.
`CN(C)CCn1ccc2c(ccn2Cc2ccc(Cl)c(Cl)c2)c1=O` [CTCB-405, 1-[(3,4-Dichlorophenyl)methyl]-5-[2-(dimethylamino)ethyl] pyrrolo[3,2-c]pyridin-4-one]: the “mode of inhibition with respect to ATP and F6P” value on TbPFK was “not competitive with either ATP or F6P; also recorded: not competitive with either substrate”. Moreover, the “Vmax, Michaelis Menten best fit versus ATP” value was 36.5 µmol/min/mg on TbPFK (CTCB-405 at 0.5 x IC50), 33.8 µmol/min/mg on TbPFK (CTCB-405 at 1x IC50) and 26.6 µmol/min/mg on TbPFK (CTCB-405 at 2 x IC50). Further, the “Vmax, Michaelis Menten best fit versus F6P” value was determined as 38.7 µmol/min/mg on TbPFK (CTCB-405 at 0.5 x IC50), 33.6 µmol/min/mg on TbPFK (CTCB-405 at 1x IC50) and 34.0 µmol/min/mg at TbPFK (CTCB-405 at 2 x IC50). Moreover, the inhibition at 10 µM against CYP2D6 is 60%.
